Source: PubChem BioAssay (NCI)
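Grown in 96-well plates, cells were treated for 48 hours with each compound at five concentrations. Insufficient inhibition: endpoint recorded as highest concentration tested. TGI marks complete inhibition of growth.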

What was measured:
Test in all cases: NCI anticancer screen, dose series, 48 h
UACC-257 melanoma = system: UACC-257 melanoma
SF-539 CNS = system: SF-539 CNS
HOP-18 NSCLC = system: HOP-18 NSCLC
CCRF-CEM leukemia = system: CCRF-CEM leukemia
K-562 leukemia = system: K-562 leukemia
MALME-3M melanoma = system: MALME-3M melanoma
SN12C renal = system: SN12C renal
HT29 colon = system: HT29 colon
LOX IMVI melanoma = system: LOX IMVI melanoma
ACHN renal = system: ACHN renal
TK-10 renal = system: TK-10 renal
SK-OV-3 ovarian = system: SK-OV-3 ovarian
CAKI-1 renal = system: CAKI-1 renal
A549 NSCLC = system: A549 NSCLC
SW-620 colon = system: SW-620 colon
M14 melanoma = system: M14 melanoma
OVCAR-3 ovarian = system: OVCAR-3 ovarian
SNB-75 CNS = system: SNB-75 CNS
KM12 colon = system: KM12 colon
NCI/ADR-RES ovarian = system: NCI/ADR-RES ovarian

Row | Compound | TGI (UACC-257 melanoma) | TGI (SF-539 CNS) | TGI (HOP-18 NSCLC) | TGI (CCRF-CEM leukemia) | TGI (K-562 leukemia) | TGI (MALME-3M melanoma) | TGI (SN12C renal) | TGI (HT29 colon) | TGI (LOX IMVI melanoma) | TGI (ACHN renal) | TGI (TK-10 renal) | TGI (SK-OV-3 ovarian) | TGI (CAKI-1 renal) | TGI (A549 NSCLC) | TGI (SW-620 colon) | TGI (M14 melanoma) | TGI (OVCAR-3 ovarian) | TGI (SNB-75 CNS) | TGI (KM12 colon) | TGI (NCI/ADR-RES ovarian)
1 | Cc1c(N(Cc2ccccc2)Cc2ccccc2)nc(S(C)(=O)=O)nc1S(C)(=O)=O | 3.76 µM | 25.7 µM | 17.3 µM | 5.15 µM | 4.83 µM | 17.6 µM | 4.28 µM | 3.67 µM | 3.24 µM | 16.4 µM | 15.7 µM | 27.7 µM | 20.2 µM | 29 µM | 3.61 µM | 4.3 µM | 3.36 µM | – | – | –
2 | Nc1nc2c(c(-c3ccc(F)cc3)n1)COC/C2=C\c1ccc(F)cc1 | > 100 µM | > 100 µM | – | > 100 µM | > 100 µM | 35.1 µM | > 100 µM | 29.3 µM | – | > 100 µM | > 100 µM | > 100 µM | > 100 µM | – | > 100 µM | > 100 µM | > 100 µM | 83.1 µM | 29 µM | > 100 µM
3 | COc1cc(O)c2c(=O)c(O)c(-c3ccc(O)c(O)c3)oc2c1 | 46.1 µM | – | – | 33 µM | > 100 µM | 69.3 µM | – | 48.4 µM | 31.9 µM | 24.9 µM | 63.1 µM | 56.9 µM | 15.6 µM | 50.3 µM | 53.7 µM | 42.6 µM | 21.8 µM | – | – | 32.9 µM
4 | Cn1c(=O)c(C#N)c(O)c2cc3ccccc3nc21 | > 100 µM | > 100 µM | > 100 µM | > 100 µM | > 100 µM | > 100 µM | > 100 µM | – | > 100 µM | > 100 µM | > 100 µM | > 100 µM | > 100 µM | > 100 µM | > 100 µM | > 100 µM | – | > 100 µM | > 100 µM | –
5 | Nc1cc(O)c2cc(N=Nc3ccc(N=Nc4ccc(N=Nc5ccc6cc(S(=O)(=O)O)cc(S(=O)(=O)O)c6c5)c5ccccc45)c4cc(S(=O)(=O)O)ccc34)c(S(=O)(=O)O)cc2c1 | > 100 µM | > 100 µM | > 100 µM | > 100 µM | > 31.6 µM | > 100 µM | > 100 µM | > 100 µM | > 100 µM | – | – | > 100 µM | – | > 100 µM | > 100 µM | – | > 100 µM | > 100 µM | > 100 µM | > 100 µM
